From ChEMBL document CHEMBL3991601, “The target landscape of clinical kinase drugs” (Science, 2017) come the findings set out here.

Test [1] deals with Activin receptor type-2B (Homo sapiens, UniProt Q13705).
For test [2], the target named is Cyclin-dependent kinase 17 (Homo sapiens, UniProt Q00537).
The target of test [3] is Chromodomain-helicase-DNA-binding protein 4 (Homo sapiens, UniProt Q14839).
The target of test [4] is Casein kinase I isoform epsilon (Homo sapiens, UniProt P49674).
Test [5] addresses T1, EKC/KEOPS complex subunit TP53RK (Homo sapiens, UniProt Q96S44).
T1 sequence (Q96S44 whole entry): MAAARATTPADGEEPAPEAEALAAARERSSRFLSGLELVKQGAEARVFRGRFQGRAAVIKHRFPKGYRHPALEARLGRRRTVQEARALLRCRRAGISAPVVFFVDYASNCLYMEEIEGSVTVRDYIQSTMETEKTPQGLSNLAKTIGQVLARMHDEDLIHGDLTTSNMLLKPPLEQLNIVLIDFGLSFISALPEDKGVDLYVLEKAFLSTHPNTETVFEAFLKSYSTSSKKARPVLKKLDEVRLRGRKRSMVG

Test [6] has as its target Protein-tyrosine kinase 2-beta (Homo sapiens, UniProt Q14289).
Test [7] addresses T2, General transcription and DNA repair factor IIH helicase subunit XPD (Homo sapiens, UniProt P18074).
T2 sequence (P18074 whole entry): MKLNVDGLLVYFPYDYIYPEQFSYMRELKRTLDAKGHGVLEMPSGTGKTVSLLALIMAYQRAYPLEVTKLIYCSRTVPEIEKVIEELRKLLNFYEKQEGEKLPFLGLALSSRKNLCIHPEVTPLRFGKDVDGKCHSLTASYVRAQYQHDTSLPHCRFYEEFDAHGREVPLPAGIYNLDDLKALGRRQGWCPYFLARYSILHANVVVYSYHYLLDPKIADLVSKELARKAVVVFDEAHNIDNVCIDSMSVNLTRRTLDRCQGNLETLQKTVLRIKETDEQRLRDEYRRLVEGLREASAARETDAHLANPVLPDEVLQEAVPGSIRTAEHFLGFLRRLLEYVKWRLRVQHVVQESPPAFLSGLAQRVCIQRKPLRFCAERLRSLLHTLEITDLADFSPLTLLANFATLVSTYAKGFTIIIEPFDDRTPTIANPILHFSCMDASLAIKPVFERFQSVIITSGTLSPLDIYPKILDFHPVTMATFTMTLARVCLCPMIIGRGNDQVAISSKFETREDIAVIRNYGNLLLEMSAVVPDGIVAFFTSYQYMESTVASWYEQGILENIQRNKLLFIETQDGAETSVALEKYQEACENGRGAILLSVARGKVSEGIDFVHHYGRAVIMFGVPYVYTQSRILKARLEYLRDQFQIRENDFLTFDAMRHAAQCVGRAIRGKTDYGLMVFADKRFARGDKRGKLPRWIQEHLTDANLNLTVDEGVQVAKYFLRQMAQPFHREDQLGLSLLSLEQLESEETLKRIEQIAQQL
The settings on record: read-out: Kd apparent; k-562, colo 205, sk-n-be(2) and mv-4-11.

For test [8], the target named is LIM domain kinase 2 (Homo sapiens, UniProt P53671).
Test [9] concerns the target T3, Serine/threonine-protein kinase 3 (Homo sapiens, UniProt Q13188).
T3 sequence (Q13188 whole entry): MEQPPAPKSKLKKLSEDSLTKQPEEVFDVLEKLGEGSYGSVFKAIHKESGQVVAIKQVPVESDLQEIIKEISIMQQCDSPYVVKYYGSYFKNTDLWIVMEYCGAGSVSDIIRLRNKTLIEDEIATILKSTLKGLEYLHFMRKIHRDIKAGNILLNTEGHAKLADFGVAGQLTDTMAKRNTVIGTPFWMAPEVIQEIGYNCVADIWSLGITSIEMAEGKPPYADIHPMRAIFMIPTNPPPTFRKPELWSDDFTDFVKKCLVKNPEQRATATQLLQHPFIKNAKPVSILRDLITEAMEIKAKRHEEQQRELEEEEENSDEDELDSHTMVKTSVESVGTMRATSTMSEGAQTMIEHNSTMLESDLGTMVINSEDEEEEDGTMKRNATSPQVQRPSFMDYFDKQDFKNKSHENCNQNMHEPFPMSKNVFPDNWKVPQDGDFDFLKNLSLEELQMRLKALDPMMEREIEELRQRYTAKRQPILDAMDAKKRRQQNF

Test [10] has as its target Protein kinase C alpha type (Homo sapiens, UniProt P17252).
In test [11] the target is T4, Exosome RNA helicase MTR4 (Homo sapiens, UniProt P42285).
T4 sequence (P42285 whole entry): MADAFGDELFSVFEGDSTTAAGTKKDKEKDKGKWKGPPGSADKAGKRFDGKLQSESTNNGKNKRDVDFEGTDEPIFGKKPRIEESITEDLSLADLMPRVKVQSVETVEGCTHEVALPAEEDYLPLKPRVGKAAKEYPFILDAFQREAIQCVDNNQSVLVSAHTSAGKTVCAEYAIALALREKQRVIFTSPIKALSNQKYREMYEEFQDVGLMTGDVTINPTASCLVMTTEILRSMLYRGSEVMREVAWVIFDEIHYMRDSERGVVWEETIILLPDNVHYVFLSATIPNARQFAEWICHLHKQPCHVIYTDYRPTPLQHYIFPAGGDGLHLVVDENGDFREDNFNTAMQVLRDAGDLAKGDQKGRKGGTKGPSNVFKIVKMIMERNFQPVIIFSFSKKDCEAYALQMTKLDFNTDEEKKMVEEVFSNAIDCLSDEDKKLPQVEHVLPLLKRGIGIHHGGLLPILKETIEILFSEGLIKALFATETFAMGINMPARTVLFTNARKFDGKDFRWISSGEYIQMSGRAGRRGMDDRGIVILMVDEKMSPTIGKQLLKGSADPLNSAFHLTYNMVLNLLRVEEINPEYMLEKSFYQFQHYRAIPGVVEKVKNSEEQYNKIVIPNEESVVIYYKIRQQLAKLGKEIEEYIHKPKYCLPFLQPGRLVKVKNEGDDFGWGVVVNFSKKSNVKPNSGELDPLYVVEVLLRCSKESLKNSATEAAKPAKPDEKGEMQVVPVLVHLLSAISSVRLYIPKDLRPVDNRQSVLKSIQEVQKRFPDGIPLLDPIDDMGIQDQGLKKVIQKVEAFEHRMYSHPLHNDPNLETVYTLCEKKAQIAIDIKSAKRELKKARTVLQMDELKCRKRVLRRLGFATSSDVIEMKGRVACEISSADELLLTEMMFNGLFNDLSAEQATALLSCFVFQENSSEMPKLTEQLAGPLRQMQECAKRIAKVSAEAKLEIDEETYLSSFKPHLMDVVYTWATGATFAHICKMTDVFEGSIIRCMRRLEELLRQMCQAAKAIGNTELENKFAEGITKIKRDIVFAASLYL

Structures can show the parent of a compound that is named as a salt. Active and inactive are the calls of the source. For most assays here, no stated cut-off is given here; in the data, actives have a measured Kd and inactives only a lower limit.

Chain of Cyclin-dependent kinase 17 (Q00537 whole entry): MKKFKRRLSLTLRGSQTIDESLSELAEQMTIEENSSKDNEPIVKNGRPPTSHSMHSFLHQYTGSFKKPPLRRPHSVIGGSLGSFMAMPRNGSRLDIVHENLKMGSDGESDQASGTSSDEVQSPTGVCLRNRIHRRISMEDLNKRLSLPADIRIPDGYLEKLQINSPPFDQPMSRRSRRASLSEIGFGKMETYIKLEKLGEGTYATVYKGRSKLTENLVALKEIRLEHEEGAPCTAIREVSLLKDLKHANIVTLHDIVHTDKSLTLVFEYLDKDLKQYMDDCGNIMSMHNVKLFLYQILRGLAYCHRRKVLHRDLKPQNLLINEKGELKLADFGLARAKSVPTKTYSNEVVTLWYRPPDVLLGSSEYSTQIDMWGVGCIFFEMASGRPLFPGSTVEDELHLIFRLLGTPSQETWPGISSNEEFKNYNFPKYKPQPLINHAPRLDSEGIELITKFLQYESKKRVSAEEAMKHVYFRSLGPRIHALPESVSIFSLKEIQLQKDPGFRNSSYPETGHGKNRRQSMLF
Chain of Activin receptor type-2B (Q13705 whole entry): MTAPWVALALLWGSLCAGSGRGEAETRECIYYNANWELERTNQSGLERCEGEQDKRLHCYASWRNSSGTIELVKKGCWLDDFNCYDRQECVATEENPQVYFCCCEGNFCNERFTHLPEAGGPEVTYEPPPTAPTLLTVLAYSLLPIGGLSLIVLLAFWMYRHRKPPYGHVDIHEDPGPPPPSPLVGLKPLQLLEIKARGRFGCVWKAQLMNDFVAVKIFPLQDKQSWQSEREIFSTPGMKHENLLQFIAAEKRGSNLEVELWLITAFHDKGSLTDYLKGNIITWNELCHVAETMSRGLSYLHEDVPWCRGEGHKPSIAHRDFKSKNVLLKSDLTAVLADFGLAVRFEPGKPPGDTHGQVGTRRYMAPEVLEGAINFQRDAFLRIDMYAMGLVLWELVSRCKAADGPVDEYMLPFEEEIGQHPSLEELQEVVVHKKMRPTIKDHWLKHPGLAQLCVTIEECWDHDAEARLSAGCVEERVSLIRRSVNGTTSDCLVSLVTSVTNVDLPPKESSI
Chain of Casein kinase I isoform epsilon (P49674 whole entry, canonical isoform): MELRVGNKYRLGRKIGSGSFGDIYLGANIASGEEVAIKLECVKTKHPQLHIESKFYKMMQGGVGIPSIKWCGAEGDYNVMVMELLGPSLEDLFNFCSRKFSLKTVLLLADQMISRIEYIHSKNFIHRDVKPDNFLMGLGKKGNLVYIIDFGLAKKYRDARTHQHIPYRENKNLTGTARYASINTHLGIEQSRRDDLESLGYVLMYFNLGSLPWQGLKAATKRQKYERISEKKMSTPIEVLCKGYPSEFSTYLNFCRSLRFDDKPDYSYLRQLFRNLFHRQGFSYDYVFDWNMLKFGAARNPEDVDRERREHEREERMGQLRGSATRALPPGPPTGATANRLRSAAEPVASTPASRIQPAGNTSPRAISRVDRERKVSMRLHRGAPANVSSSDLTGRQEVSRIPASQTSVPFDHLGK
Chain of Protein-tyrosine kinase 2-beta (Q14289 whole entry): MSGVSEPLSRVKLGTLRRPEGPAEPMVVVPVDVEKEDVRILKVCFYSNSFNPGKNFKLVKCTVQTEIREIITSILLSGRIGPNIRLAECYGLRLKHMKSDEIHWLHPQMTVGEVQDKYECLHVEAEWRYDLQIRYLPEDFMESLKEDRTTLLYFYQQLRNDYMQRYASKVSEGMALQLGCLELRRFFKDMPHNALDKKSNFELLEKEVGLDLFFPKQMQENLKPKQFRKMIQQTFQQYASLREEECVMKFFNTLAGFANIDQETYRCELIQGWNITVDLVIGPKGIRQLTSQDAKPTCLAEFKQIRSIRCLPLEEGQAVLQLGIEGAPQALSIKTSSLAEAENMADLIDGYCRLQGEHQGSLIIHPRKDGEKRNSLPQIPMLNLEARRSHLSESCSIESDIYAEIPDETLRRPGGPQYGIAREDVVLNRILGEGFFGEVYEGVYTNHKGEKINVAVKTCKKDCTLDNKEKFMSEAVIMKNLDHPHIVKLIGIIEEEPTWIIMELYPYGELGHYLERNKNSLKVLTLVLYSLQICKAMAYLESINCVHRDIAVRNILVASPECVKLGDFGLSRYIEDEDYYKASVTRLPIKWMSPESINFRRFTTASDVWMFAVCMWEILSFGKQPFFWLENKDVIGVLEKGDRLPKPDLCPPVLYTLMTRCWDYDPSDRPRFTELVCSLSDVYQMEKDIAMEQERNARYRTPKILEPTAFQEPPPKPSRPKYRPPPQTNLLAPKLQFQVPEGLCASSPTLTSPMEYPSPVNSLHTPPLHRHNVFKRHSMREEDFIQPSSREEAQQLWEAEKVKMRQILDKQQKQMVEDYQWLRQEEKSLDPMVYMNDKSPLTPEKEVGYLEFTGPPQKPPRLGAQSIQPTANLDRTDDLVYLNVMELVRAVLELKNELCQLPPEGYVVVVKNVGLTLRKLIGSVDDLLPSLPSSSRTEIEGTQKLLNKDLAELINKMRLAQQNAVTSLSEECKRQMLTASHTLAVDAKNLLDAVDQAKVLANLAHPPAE
Chain of Chromodomain-helicase-DNA-binding protein 4 (Q14839 whole entry, canonical isoform): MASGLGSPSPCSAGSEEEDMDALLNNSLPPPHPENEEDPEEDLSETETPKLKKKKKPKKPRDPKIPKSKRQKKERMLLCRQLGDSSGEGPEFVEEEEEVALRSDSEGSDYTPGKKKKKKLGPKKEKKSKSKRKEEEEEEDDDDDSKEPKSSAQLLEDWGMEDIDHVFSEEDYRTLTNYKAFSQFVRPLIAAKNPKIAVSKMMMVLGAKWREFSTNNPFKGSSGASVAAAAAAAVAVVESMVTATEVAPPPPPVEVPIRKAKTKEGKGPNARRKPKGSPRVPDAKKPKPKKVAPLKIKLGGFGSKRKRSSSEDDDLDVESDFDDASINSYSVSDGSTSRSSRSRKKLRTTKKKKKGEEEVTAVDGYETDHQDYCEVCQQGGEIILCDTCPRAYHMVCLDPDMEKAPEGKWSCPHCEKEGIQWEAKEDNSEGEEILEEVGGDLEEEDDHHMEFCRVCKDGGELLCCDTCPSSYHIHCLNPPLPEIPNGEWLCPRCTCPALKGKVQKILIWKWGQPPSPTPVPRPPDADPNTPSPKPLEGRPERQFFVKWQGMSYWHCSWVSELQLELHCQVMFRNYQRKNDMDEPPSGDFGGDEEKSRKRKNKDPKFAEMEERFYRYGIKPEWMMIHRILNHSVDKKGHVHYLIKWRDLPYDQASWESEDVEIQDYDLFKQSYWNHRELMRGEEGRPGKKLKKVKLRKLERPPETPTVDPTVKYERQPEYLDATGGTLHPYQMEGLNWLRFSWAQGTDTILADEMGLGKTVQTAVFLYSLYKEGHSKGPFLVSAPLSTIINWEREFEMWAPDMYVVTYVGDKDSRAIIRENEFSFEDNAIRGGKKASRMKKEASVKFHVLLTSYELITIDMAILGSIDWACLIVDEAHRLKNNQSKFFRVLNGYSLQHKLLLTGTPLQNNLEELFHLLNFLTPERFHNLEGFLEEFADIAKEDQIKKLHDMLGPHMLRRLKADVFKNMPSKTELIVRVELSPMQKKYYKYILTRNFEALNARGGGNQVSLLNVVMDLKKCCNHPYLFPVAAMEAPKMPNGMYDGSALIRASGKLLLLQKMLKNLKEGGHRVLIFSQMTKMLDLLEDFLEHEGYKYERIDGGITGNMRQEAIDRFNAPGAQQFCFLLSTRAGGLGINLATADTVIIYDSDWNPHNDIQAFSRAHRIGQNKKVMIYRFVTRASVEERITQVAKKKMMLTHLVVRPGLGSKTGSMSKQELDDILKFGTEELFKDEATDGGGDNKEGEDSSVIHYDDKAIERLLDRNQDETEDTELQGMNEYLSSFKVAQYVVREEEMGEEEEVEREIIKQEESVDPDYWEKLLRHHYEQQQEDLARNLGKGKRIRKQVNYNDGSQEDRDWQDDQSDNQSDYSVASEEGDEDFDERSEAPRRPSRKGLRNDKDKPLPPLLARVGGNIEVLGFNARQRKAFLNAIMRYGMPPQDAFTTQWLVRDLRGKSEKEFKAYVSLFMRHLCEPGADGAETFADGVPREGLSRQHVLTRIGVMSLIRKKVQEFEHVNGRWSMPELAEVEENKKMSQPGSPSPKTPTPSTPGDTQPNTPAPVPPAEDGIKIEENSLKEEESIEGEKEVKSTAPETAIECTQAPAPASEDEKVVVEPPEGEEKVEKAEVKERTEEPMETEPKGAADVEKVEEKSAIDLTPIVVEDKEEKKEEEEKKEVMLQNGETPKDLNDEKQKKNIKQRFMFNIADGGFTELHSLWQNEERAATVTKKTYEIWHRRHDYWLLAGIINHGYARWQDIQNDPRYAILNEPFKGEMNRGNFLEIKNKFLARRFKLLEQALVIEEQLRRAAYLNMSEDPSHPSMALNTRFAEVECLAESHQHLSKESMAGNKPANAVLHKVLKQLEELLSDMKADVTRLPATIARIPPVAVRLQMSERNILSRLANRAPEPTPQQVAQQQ

For the compound `CCn1c(C(=O)N(C2CC2)C2CC2)cc2c3c(ncn3C)c(Nc3cc(C)n(C)n3)nc21` [BMS-911543], the Kd in test [1], in test [2], in test [3], in test [4], in test [5] and in test [6] was > 30 µM (inactive) each time. Further, the Kd in [7], in test [8], in [9], in [10] and in test [11] was > 30 µM (inactive) throughout.

Consider `COc1cc2ncnc(Oc3cccc(NC(=O)Nc4cc(C(C)(C)C(F)(F)F)on4)c3)c2cc1OC` [CEP-32496], for which the Kd in test [1], in [2], in test [3], in [4], in [5] and in [6] was > 30 µM (inactive) each time. The Kd in [7], in test [8], in test [9], in [10] and in test [11] was > 30 µM (inactive) throughout.

Consider `Cc1cc(Nc2ncc(Cl)c(Nc3ccccc3S(=O)(=O)C(C)C)n2)c(OC(C)C)cc1C1CCNCC1` [CERITINIB], for which the Kd is > 30 µM (inactive) in test [1]; > 30 µM (inactive) in [2]; > 30 µM (inactive) in test [3]; > 30 µM (inactive) in test [4]; > 30 µM (inactive) in test [5]; 18.4 µM (active) in [6]. Moreover, the Kd in [7], in [8], in test [9], in [10] and in test [11] was > 30 µM (inactive) throughout.

Consider `COCC(=O)NC/C=C/c1ccc2ncnc(Nc3ccc(Oc4ccc(C)nc4)c(C)c3)c2c1` [CP-724714], for which the Kd in test [1], in test [2], in test [3], in test [4], in [5] and in test [6] was > 30 µM (inactive) each time. Also, the Kd in test [7], in [8], in test [9], in test [10] and in test [11] was > 30 µM (inactive) each time.

With `C#Cc1cccc(Nc2ncnc3cc(OC)c(OCCCCCCC(=O)NO)cc23)c1` [CUDC-101], the Kd in test [1], in test [2], in [3], in test [4], in [5] and in test [6] was > 30 µM (inactive) in each case. For the same compound, the Kd in test [7], in test [8], in test [9], in [10] and in test [11] was > 30 µM (inactive) each time.

As for `CCS(=O)(=O)N1CCN(c2ccc(Nc3ncc(C(N)=O)c(NC4CC4)n3)cc2)CC1` [Cerdulatinib Hydrochloride], the Kd in test [1], in [2], in test [3], in test [4], in test [5] and in test [6] was > 30 µM (inactive) in each case. Moreover, the Kd in [7] is > 30 µM (inactive); in test [8] it was > 30 µM (inactive); in test [9] it was 0.062 µM (active); in test [10], > 30 µM (inactive); in [11], > 30 µM (inactive).

Regarding `Cc1nc2cc(-n3ncc(C(=O)c4cc5ccccc5[nH]4)c3N)ccc2[nH]1` [FGFR INHIBITOR DEBIO 1347], the Kd in [1], in [2], in [3], in test [4], in test [5] and in [6] was > 30 µM (inactive) each time. Moreover, the Kd in test [7], in [8], in [9], in [10] and in [11] was > 30 µM (inactive) each time.

For the compound `Cc1cccc(-c2nn3c(c2-c2ccnc4ccc(C(N)=O)cc24)CCC3)n1` [GALUNISERTIB], the Kd is > 30 µM (inactive) in [1]; > 30 µM (inactive) in test [2]; > 30 µM (inactive) in test [3]; 7.9 µM (active) in test [4]; > 30 µM (inactive) in test [5]; > 30 µM (inactive) in test [6]. The Kd in test [7], in test [8], in test [9], in test [10] and in test [11] was > 30 µM (inactive) in each case.

With `COc1ccc(S(=O)(=O)N(C(C)=O)c2ccccc2/C=C/c2cc[n+]([O-])cc2)cc1` [HMN-214], the Kd in [1], in [2], in test [3], in test [4], in test [5] and in test [6] was > 30 µM (inactive) throughout. The Kd in test [7], in test [8], in test [9], in test [10] and in test [11] was > 30 µM (inactive) each time.
